Assays:
Assay in all cases: biochemical
Type in all cases: binding
[1] = target: 468 kinases including some pathogenic mutants (Homo sapiens, UniProt Q9Y5S2); conditions: MRCKB (Entrez CDC42BPB), 1000 nM; read-out: Percent Control
[2] = target: 468 kinases including some pathogenic mutants (Homo sapiens, UniProt P42681); conditions: TXK (Entrez TXK), 100 nM; read-out: Percent Control
[3] = target: 468 kinases including some pathogenic mutants (Homo sapiens, UniProt O75116); conditions: ROCK2 (Entrez ROCK2), 100 nM; read-out: Percent Control
[4] = target: 468 kinases including some pathogenic mutants (Homo sapiens, UniProt Q5S007, G2019S); conditions: read-out: Percent Control
[5] = target: 468 kinases including some pathogenic mutants (Homo sapiens, UniProt Q13554); conditions: CAMK2B (Entrez CAMK2B), 100 nM; read-out: Percent Control
[6] = target: 468 kinases including some pathogenic mutants (Homo sapiens, UniProt P11309); conditions: PIM1 (Entrez PIM1), 100 nM; read-out: Percent Control
[7] = target: 468 kinases including some pathogenic mutants (Homo sapiens, UniProt P45985); conditions: MEK4 (Entrez MAP2K4), 1000 nM; read-out: Percent Control
[8] = target: 468 kinases including some pathogenic mutants (Homo sapiens, UniProt Q9BZL6); conditions: PRKD2 (Entrez PRKD2), 100 nM; read-out: Percent Control
[9] = target: 468 kinases including some pathogenic mutants (Homo sapiens, UniProt O60331); conditions: PIP5K1C (Entrez PIP5K1C), 1000 nM; read-out: Percent Control
[10] = target: 468 kinases including some pathogenic mutants (Homo sapiens, UniProt O95819); conditions: MAP4K4 (Entrez MAP4K4), 100 nM; read-out: Percent Control
[11] = target: 468 kinases including some pathogenic mutants (Homo sapiens, UniProt Q15208); conditions: NDR1 (Entrez STK38), 100 nM; read-out: Percent Control
[12] = target: 468 kinases including some pathogenic mutants (Homo sapiens, UniProt P21709); conditions: EPHA1 (Entrez EPHA1), 100 nM; read-out: Percent Control
[13] = target: 468 kinases including some pathogenic mutants (Homo sapiens, UniProt O95747); conditions: OSR1 (Entrez OXSR1), 100 nM; read-out: Percent Control
[14] = target: 468 kinases including some pathogenic mutants (Homo sapiens, UniProt P52333); conditions: JAK3(JH1domain-catalytic) (Entrez JAK3), 100 nM; read-out: Percent Control
[15] = target: 468 kinases including some pathogenic mutants (Homo sapiens, UniProt Q9H1R3); conditions: MYLK2 (Entrez MYLK2), 100 nM; read-out: Percent Control
[16] = target: 468 kinases including some pathogenic mutants (Homo sapiens, UniProt P10721, V559D); conditions: read-out: Percent Control
[17] = target: 468 kinases including some pathogenic mutants (Homo sapiens, UniProt P00519, F317I); conditions: read-out: Percent Control
[18] = target: 468 kinases including some pathogenic mutants (Homo sapiens, UniProt Q6P3R8); conditions: NEK5 (Entrez NEK5), 100 nM; read-out: Percent Control
[19] = target: 468 kinases including some pathogenic mutants (Homo sapiens, UniProt P78362); conditions: SRPK2 (Entrez SRPK2), 1000 nM; read-out: Percent Control
[20] = target: 468 kinases including some pathogenic mutants (Homo sapiens, UniProt P42345); conditions: MTOR (Entrez MTOR), 1000 nM; read-out: Percent Control
[21] = target: 468 kinases including some pathogenic mutants (Homo sapiens, UniProt P45983); conditions: JNK1 (Entrez MAPK8), 1000 nM; read-out: Percent Control
[22] = target: 468 kinases including some pathogenic mutants (Homo sapiens, UniProt Q15569); conditions: TESK1 (Entrez TESK1), 100 nM; read-out: Percent Control
[23] = target: 468 kinases including some pathogenic mutants (Homo sapiens, UniProt Q9BX84); conditions: TRPM6 (Entrez TRPM6), 1000 nM; read-out: Percent Control
[24] = target: 468 kinases including some pathogenic mutants (Homo sapiens, UniProt Q8N568); conditions: DCAMKL2 (Entrez DCLK2), 100 nM; read-out: Percent Control
[25] = target: 468 kinases including some pathogenic mutants (Homo sapiens, UniProt P42685); conditions: FRK (Entrez FRK), 100 nM; read-out: Percent Control
[26] = target: 468 kinases including some pathogenic mutants (Homo sapiens, UniProt P07948); conditions: LYN (Entrez LYN), 100 nM; read-out: Percent Control
[27] = target: 468 kinases including some pathogenic mutants (Homo sapiens, UniProt Q8NFD2); conditions: ANKK1 (Entrez ANKK1), 100 nM; read-out: Percent Control
[28] = target: 468 kinases including some pathogenic mutants (Homo sapiens, UniProt Q00536); conditions: PCTK1 (Entrez CDK16), 1000 nM; read-out: Percent Control
[29] = target: 468 kinases including some pathogenic mutants (Homo sapiens, UniProt P42336, H1047Y); conditions: read-out: Percent Control

468 kinases including some pathogenic mutants (Homo sapiens, UniProt Q15208), sequence (Q15208 whole entry, change not shown): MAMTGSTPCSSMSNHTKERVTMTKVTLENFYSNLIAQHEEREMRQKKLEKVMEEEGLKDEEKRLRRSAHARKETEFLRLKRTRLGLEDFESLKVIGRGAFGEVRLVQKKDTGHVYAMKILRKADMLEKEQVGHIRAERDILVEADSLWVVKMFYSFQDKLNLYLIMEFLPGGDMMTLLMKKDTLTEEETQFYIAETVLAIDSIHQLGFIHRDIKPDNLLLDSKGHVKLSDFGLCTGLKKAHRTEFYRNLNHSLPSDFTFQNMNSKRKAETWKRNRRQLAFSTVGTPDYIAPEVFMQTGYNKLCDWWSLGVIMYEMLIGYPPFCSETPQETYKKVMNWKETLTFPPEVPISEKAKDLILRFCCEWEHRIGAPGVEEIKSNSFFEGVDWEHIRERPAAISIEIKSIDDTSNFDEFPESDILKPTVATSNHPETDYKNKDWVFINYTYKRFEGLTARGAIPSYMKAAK
468 kinases including some pathogenic mutants (Homo sapiens, UniProt Q8NFD2), sequence (Q8NFD2 whole entry, change not shown): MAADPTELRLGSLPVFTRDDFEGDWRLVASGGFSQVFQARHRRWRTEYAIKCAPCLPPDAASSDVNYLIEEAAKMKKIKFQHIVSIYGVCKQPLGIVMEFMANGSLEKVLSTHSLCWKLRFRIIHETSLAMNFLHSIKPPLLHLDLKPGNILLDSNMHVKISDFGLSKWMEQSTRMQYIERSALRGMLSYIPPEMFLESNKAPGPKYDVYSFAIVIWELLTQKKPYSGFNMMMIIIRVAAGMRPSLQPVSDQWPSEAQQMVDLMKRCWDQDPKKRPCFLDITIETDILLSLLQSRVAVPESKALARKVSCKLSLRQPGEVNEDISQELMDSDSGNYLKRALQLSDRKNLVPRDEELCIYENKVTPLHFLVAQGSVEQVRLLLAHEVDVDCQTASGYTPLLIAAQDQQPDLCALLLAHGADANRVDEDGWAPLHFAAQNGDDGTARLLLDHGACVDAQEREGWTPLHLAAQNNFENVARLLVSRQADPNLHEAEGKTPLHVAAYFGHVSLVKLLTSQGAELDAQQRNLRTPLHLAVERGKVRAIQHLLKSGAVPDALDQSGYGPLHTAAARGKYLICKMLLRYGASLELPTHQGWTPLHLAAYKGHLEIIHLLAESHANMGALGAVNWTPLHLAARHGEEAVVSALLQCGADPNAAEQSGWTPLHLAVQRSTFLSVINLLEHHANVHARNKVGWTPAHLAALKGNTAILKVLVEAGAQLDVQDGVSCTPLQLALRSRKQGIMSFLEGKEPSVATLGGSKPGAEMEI
468 kinases including some pathogenic mutants (Homo sapiens, UniProt Q9BZL6), sequence (Q9BZL6 whole entry, change not shown): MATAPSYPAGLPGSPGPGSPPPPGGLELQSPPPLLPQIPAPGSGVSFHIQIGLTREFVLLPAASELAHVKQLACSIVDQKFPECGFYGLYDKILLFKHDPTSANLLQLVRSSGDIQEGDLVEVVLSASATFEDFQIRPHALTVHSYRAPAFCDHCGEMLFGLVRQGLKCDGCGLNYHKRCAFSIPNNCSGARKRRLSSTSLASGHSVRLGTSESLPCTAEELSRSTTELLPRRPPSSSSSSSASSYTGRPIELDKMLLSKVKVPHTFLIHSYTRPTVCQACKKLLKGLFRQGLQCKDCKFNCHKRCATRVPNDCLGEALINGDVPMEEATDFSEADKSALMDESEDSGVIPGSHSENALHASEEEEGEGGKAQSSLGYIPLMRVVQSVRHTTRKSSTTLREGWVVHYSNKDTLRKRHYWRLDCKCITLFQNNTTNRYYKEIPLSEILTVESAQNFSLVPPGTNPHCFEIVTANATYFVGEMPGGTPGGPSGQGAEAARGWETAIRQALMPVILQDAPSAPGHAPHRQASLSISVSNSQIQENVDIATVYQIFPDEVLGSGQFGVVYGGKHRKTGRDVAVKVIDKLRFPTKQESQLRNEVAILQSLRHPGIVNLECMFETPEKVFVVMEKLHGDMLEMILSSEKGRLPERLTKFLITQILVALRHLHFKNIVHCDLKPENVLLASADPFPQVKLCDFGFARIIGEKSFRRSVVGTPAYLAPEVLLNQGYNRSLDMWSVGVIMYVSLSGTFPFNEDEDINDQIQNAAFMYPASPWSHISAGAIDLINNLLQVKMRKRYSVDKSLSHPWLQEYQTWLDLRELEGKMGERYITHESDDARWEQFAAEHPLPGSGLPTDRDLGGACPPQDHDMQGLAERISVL
468 kinases including some pathogenic mutants (Homo sapiens, UniProt Q5S007, G2019S), sequence (Q5S007 whole entry G2019S): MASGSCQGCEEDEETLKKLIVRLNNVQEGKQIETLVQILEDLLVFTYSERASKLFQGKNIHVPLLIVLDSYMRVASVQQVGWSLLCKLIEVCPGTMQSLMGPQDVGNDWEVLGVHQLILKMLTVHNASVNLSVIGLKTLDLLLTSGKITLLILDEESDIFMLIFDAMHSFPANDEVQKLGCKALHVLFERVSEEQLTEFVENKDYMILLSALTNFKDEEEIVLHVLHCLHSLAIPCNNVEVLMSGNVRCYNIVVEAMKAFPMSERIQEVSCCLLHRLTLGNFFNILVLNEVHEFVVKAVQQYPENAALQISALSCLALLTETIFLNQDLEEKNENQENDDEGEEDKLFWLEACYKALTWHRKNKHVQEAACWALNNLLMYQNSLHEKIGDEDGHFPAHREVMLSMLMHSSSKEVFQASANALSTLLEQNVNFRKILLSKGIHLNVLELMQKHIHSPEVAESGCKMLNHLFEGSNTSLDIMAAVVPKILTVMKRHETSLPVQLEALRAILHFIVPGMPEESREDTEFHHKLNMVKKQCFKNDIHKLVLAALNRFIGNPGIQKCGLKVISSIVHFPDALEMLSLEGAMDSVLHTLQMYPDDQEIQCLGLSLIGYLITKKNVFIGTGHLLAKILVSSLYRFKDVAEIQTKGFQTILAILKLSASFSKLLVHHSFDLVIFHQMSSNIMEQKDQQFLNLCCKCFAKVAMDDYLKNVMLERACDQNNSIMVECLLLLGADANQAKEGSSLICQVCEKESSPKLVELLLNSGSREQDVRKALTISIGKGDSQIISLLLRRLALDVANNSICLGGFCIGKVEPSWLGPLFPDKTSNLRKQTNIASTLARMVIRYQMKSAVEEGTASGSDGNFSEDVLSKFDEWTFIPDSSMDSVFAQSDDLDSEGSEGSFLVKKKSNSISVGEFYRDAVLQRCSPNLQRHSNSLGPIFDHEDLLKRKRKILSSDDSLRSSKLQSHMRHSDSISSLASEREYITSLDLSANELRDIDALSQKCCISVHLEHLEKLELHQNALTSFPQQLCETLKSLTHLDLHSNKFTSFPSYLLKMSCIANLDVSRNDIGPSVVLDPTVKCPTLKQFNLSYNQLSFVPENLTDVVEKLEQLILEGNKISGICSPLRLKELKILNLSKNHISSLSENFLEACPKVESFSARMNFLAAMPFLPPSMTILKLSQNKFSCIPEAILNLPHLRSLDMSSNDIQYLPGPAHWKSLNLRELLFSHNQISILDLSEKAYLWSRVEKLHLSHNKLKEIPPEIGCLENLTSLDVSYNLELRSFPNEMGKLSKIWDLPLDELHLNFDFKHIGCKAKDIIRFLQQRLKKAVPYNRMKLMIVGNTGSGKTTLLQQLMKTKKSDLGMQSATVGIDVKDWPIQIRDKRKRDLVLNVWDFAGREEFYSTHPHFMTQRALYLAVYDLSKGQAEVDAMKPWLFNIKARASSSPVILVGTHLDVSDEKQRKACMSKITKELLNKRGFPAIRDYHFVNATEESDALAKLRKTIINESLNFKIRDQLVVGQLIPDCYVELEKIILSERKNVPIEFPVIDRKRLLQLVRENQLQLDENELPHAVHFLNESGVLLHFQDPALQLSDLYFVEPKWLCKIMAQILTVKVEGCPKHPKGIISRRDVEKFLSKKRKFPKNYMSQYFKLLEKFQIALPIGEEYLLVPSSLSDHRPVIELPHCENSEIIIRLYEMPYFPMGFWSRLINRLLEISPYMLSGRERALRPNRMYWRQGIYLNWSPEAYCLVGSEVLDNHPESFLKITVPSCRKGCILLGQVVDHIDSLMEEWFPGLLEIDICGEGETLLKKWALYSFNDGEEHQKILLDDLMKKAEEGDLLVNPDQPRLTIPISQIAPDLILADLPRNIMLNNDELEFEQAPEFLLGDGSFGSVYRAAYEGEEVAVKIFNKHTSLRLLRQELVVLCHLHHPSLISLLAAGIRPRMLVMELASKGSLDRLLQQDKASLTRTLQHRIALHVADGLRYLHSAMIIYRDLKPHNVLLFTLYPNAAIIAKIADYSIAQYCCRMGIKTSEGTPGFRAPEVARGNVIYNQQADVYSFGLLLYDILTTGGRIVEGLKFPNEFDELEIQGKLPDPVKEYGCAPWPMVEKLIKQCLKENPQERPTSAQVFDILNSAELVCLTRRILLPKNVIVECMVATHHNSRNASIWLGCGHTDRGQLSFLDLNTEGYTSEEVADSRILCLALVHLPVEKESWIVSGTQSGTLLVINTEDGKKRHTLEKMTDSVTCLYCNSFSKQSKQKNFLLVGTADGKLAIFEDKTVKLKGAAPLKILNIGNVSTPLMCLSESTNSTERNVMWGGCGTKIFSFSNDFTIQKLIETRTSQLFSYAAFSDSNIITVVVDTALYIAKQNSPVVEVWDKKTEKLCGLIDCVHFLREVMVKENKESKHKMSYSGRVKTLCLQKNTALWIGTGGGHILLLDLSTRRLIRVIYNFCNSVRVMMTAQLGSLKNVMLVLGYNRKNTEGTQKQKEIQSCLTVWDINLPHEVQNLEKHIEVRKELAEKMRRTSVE
468 kinases including some pathogenic mutants (Homo sapiens, UniProt Q00536), sequence (Q00536 whole entry, stated change not applied): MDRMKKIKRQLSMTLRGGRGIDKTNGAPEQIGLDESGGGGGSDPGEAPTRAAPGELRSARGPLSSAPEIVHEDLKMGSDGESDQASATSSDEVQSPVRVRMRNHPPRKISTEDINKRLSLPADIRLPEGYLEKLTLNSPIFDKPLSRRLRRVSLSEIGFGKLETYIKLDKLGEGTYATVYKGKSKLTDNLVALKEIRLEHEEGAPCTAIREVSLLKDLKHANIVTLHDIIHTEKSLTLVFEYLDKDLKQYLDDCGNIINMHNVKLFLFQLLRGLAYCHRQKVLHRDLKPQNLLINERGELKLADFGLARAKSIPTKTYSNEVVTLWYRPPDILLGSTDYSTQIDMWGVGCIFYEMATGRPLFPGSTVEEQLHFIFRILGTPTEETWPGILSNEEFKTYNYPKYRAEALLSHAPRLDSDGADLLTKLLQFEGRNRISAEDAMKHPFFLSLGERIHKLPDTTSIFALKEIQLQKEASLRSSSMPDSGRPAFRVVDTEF

## CN1C(=O)[C@@H](N2CCc3c(nn(Cc4ccccc4)c3C(N)=O)C2=O)COc2cc(Cl)ccc21 [Compound 10, (S)-2-benzyl-6-(8-chloro-5-methyl-4-oxo-2,3,4,5-tetrahydrobenzo[b][1,4]oxazepin-3-yl)-7-oxo-4,5,6,7-tetrahydro-2H-pyrazolo[3,4-c]pyridine-3-carboxamide]
[1]
  remaining activity at 1 µM: 100%
[2]
  remaining activity at 0.1 µM: 88%
[3]
  remaining activity at 0.1 µM: 75%
[4]
  remaining activity at 0.1 µM: 85%
[5]
  remaining activity at 0.1 µM: 67%
[6]
  remaining activity at 0.1 µM: 93%
[7]
  remaining activity at 1 µM: 100%
[8]
  remaining activity at 0.1 µM: 84%
[9]
  remaining activity at 1 µM: 100%
[10]
  remaining activity at 0.1 µM: 99%
[11]
  remaining activity at 0.1 µM: 86%
[12]
  remaining activity at 0.1 µM: 91%
[13]
  remaining activity at 0.1 µM: 100%
[14]
  remaining activity at 0.1 µM: 100%
[15]
  remaining activity at 0.1 µM: 90%
[16]
  remaining activity at 0.1 µM: 69%
[17]
  remaining activity at 0.1 µM: 87%
[18]
  remaining activity at 0.1 µM: 87%
[19]
  remaining activity at 1 µM: 100%
[20]
  remaining activity at 1 µM: 100%
[21]
  remaining activity at 1 µM: 100%
[22]
  remaining activity at 0.1 µM: 79%
[23]
  remaining activity at 1 µM: 100%
[24]
  remaining activity at 0.1 µM: 100%
[25]
  remaining activity at 0.1 µM: 75%
[26]
  remaining activity at 0.1 µM: 100%
[27]
  remaining activity at 0.1 µM: 77%
[28]
  remaining activity at 1 µM: 100%
[29]
  remaining activity at 1 µM: 100%

From paper PMC12090182, “Repurposing of the RIPK1-Selective Benzo[1,4]oxazepin-4-one Scaffold for the Development of a Type III LIMK1/2 Inhibitor” (ACS Chemical Biology, 2025)
